This is an account of results in paper PMC5570900, “Exploiting a novel conformational switch to control innate immunity mediated by complement protein C3a” (Nature Communications, 2017).

The assay has as its target T1, C3aR (Rattus norvegicus, UniProt O55197).
T1 construct: characterize for the first time a C3aR-induced innate immune response in vivo in rats; from tissue; host or cells: live male Wistar rats, hind paw
T1 sequence (O55197 1-473): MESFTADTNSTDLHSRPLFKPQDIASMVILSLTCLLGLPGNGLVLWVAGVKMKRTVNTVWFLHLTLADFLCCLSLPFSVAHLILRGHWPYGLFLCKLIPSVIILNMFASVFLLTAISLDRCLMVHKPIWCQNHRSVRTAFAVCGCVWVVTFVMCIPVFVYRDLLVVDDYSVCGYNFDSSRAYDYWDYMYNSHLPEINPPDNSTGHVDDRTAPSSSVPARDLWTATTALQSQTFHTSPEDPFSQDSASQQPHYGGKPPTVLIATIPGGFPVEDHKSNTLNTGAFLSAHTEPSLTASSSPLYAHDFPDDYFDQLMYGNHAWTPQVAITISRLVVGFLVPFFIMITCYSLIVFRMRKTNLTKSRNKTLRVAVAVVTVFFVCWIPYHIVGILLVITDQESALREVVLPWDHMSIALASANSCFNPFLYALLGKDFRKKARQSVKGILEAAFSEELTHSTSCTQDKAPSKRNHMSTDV
In words: Antagonism of BR103-induced rat paw edema by oral C3aR antagonist. The assay is classed as in vivo. On the procedure: Male Wistar rats (8–9 weeks) were injected with BR103 (3, 350 μg in 100 μL isotonic saline) into the plantar surface of both hind paw pads using a 30G needle. The inhibitor cromolyn (20 mg/kg in 5% DMSO) was injected subcutaneously 30 min before the agonist. The antagonist BR111 (6, 5–20 mg/kg in olive oil) was administered orally as a single dose 2 h before the agonist. Paw thickness and width were measured using digital calipers (WPI) at 0, 0.5, 2, 6 and 24 h after agonist BR103 administration. Hind paw size is expressed as % change in area from baseline after 0.5 h and then normalized against maximum swelling induced by agonist alone. Researchers were not blinded to treatments given.
Rat paw tissue was collected and fixed in 4% paraformaldehyde (pH 7.4) for 2 h in the cold room (4 °C). The rat paw tissue was then transferred into falcon tubes containing 30% sucrose solution in PBS and left overnight in the cold room. The next day, rat paw tissue was embedded with the Optimal Cutting Temperature compound (OCT, Sakura Finetek, USA) and stored in the −80 °C freezer before being used for making cryo-sections for histological analysis. Frozen sections of 5 microns were prepared using a cryostat-microtome (Leica Biosystems, Germany) and stained using standard protocols on the same day. In normal histological staining, such as with alcian blue and safranin O and hematoxylin and eosin (H&E), samples were briefly washed with distilled water before staining. In alcian blue and safranin O, samples were stained with 0.1% alcian blue (Sigma-Aldrich, USA) and 0.5% safranin O (Sigma-Aldrich, USA) before being mounted in mounting medium. In H&E, samples were stained with hematoxylin (Sigma-Aldrich, USA) and 0.1% eosin (Sigma-Aldrich, USA) before being mounted in mounting medium. In immunohistochemistry, samples were briefly rinsed with PBS to remove OCT and incubated with blocking medium (PBS, 0.1% triton X-100, 10% horse serum) for 1 h at room temperature. Samples were incubated with primary antibody medium (PBS, 4% horse serum, 1:200 histamine or 1:200 of tryptase or 1:150 ED1 or 1:200 ED2 antibodies) overnight at 4 °C. The next day, samples were washed with PBS and were incubated with the secondary antibody medium (PBS, 4% horse serum, detection antibody 1:1000) for 1 h at room temperature. The samples were briefly rinsed, dried and counterstained with DAPI (Invitrogen, Australia). Primary antibodies for histamine (Sigma-Aldrich, USA, H2403, monoclonal rabbit anti-rat IgG, 1: 200), tryptase (Abcam, Australia, ab2378, monoclonal mouse anti-rat IgG, 1:200), ED1 (Serotec, UK, MCA341R, monoclonal mouse anti-rat, 1:150), ED2 (Serotec, UK, MCA3424R, monoclonal mouse anti-rat, 1:200) were purchased from commercial sources. Secondary detection antibody was purchased from (Invitrogen, Australia). ED1 & ED2 positive cells were quantified using FIJI/ImageJ 1.42q software, U.S. National Institutes of Health, Bethesda, MD, USA[44]. All microscope images were obtained using an Olympus BX-51 upright microscope with Olympus DP-71 12Mp colour camera, utilizing DP Capture and DP Manager software packages (Olympus, Tokyo, Japan). Researchers who performed histological analysis and scoring were blinded to the sample identity.
Rat paw tissues were collected and immediately frozen with liquid nitrogen. The frozen rat paw tissue samples were weighed and crushed into smaller pieces with a mortar and pestle in liquid nitrogen. […]

`N=C(N)NCCCC(NC(=O)c1ccc(C(c2ccccc2)c2ccccc2)s1)C(=O)O` (centres unmarked) [Compound 6]: where the note is “20 mg/kg p.o., 2 h prior, 0.5 h”, the “Effect on BR103-induced infiltration of ED1 macrophages” value is given as “prevented the increased infiltration of inflammatory ED1 macrophages”. Further, the “Effect on BR103-induced proinflammatory cytokine and chemokine gene expression” value (20 mg/kg p.o., 2 h prior, 30 min) was “suppression of BR103-induced gene expression of proinflammatory cytokines and chemokines”. Besides, for the setting “20 mg/kg p.o., 2 h prior, 0.5 h after agonist”, the “Effect on BR103-induced mast cell activation and degranulation and histamine secretion” value was “attenuated”. Moreover, the “Effect on BR103-induced neutrophil activation (MPO activity)” value (20 mg/kg p.o., 2 h prior, 6 h after BR103) is reported as “attenuated neutrophil activation at 6 h”. In addition, for the setting “oral pretreatment 2 h before BR103 350 µg/paw i.pl., 5–20 mg/kg p.o., swelling at 30 min”, the “Effect on BR103-induced paw edema” value is listed as “strongly inhibited acute rat paw edema”.
